Data on four molecules can be found in patent US20260191970A1, “CRBN LIGAND, PREPARATION METHOD THEREFOR, AND APPLICATION” (Shenzhen Zhongge Biological Technology Co., Ltd., priority 2023, published 2026).

T1 sequence (Q96SW2 whole entry): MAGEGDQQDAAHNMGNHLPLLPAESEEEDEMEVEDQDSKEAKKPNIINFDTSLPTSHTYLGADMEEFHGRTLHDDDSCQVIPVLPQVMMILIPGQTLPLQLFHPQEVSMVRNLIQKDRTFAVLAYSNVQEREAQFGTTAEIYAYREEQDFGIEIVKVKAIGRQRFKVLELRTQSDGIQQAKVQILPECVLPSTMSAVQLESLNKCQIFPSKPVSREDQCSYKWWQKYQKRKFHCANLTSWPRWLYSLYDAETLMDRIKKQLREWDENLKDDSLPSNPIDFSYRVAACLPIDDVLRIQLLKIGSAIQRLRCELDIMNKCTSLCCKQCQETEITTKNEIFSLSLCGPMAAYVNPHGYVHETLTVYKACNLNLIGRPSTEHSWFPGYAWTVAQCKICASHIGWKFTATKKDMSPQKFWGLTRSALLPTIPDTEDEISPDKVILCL

This assay concerns the target T1, Human Cereblon WT GST-tagged protein (Homo sapiens, UniProt Q96SW2).
T1 construct: purchased CISBIO 64BDCRBNPEG
Kind of assay: CRBN binding assay (HTRF method). To be noted: competition with Thalidomide-Red, 25° C. 1 h. On the procedure: In this experiment, the binding interaction between compounds and CRBN was detected, and based on the IC50 values, the affinity of the compounds for the CRBN target was evaluated.
The affinity of the compounds for CRBN was detected using CEREBLON BINDING KITS (CISBIO, 64 BDCRBNPEG) containing diluent #9, Human Cereblon WT GST-tagged protein, GST Eu Cryptate Antibody, and Thalidomide-Red.
20 nL of each of the compounds was transferred to a 384-well plate (PerkinElmer, 6007299) using an Ehco650 apparatus (Beckman, 650). 5 μL of 1× diluent #9 (CISBIO, 64BDCRBNPEG) was added to the 384-well plate, and then 5 μL of 1× Human Cereblon WT GST-tagged protein (CISBIO, 64BDCRBNPEG) was added. The plate was sealed with a plate sealer, shaken on a plate shaker (Kylin-Bell, MH-2) for 10 s, centrifuged at 1000 rpm for 1 min, and incubated at 25° C. for 5 min. 5 μL of 1×GST Eu Cryptate Antibody (CISBIO, 64BDCRBNPEG) and 5 μL of 1× Thalidomide-Red (CISBIO, 64BDCRBNPEG) were added to the 384-well plate. The plate was sealed with a plate sealer, shaken for 30 s, centrifuged at 1000 rpm for 1 min, and incubated at 25° C. for 1 h. The signals at 665 nm and 620 nm were measured using Envision (PerkinElmer, 2105-0020).
The IC50 values for compound activity were calculated using Graphpad Prism9 software based on the compound concentrations and the ratio of the signals at 665 nm and 620 nm. Calculation formula: […]
For orientation: TR-FRET usually uses a lanthanide donor and a delayed reading to cut background.
`CC/C(NC1CCC(=O)NC1=O)=C1/C(=O)N(C)c2ccc(N)cc21` (racemic) [Compound 6]: the IC50 (as a rule, the midpoint of a concentration-inhibition curve) is at most 2000 nM.

For the molecule `CC/C(NC1CCC(=O)NC1=O)=C1/C(=O)N(C)c2ccc(N)cc21` (single isomer, unassigned) [Compound 6-A], the half-inhibitory concentration (IC50) was at most 2000 nM.

Molecule `C/C(NC1CCC(=O)NC1=O)=C1/C(=O)Nc2ccc(Br)cc21` (stereo not shown) [Compound 1] displayed an IC50 of at most 2000 nM.

Regarding `C/C(NC1CCC(=O)NC1=O)=C1/C(=O)N(C)c2ccc(N)cc21` (stereo not shown) [Compound 4], the IC50 fell in the range of 2000 to 5000 nM.
